Results taken from PubChem BioAssay (NCI).
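Grown in 96-well plates, cells were treated for 48 hours with each compound at five concentrations. Insufficient inhibition: endpoint recorded as highest concentration tested. The concentration for 50% growth inhibition is given as GI50. TGI: concentration producing complete growth inhibition.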

How the values were obtained:
Experiment in all cases: DTP human tumour cell line panel, 48 h
CAKI-1 renal = test system: CAKI-1 renal
DMS 114 small cell lung = test system: DMS 114 small cell lung
KM12 colon = test system: KM12 colon
KM20L2 colon = test system: KM20L2 colon
M14 melanoma = test system: M14 melanoma
NCI-H226 lung = test system: NCI-H226 lung
OVCAR-5 ovarian = test system: OVCAR-5 ovarian
RPMI-8226 leukemia = test system: RPMI-8226 leukemia
SR leukemia = test system: SR leukemia
TK-10 renal = test system: TK-10 renal

Row | SMILES | TGI (CAKI-1 renal) [µM] | GI50 (DMS 114 small cell lung) [µM] | TGI (DMS 114 small cell lung) [µM] | TGI (KM12 colon) [µM] | GI50 (KM20L2 colon) [µM] | TGI (KM20L2 colon) [µM] | GI50 (M14 melanoma) [µM] | TGI (M14 melanoma) [µM] | GI50 (NCI-H226 lung) [µM] | TGI (NCI-H226 lung) [µM] | GI50 (OVCAR-5 ovarian) [µM] | TGI (OVCAR-5 ovarian) [µM] | GI50 (RPMI-8226 leukemia) [µM] | TGI (RPMI-8226 leukemia) [µM] | GI50 (SR leukemia) [µM] | TGI (SR leukemia) [µM] | GI50 (TK-10 renal) [µM] | TGI (TK-10 renal) [µM]
1 | O=C(/C=C(\O)C(=O)O)/C=C(\O)c1ccccc1 | > 100 | > 100 | > 100 | > 100 | > 1 | > 100 | > 1 | > 100 | > 1 | > 100 | > 100 | > 100 | > 100 | > 100 | > 1 | > 100 | > 1 | > 100
2 | C=C1CC(CC)(CCN2C(=O)c3ccccc3C2=O)OC1=O (stereo unspecified) | 7.59 |  | 43 | 45.1 |  | 46.1 |  | 22.8 |  | 40.6 |  |  |  | > 100 |  | > 100 |  | 32.3
3 | CCOC(=O)N1C/C(=C\c2ccccc2)C(=O)/C(=C/c2ccccc2)C1 | 4.51 |  | 14.5 | 4.55 |  | 22.4 |  | 6.69 |  | 12.3 |  | 18.2 |  | 1.77 |  | 4.05 |  | 26.4
4 | CC(C)N(C(=O)c1cccc(C(=O)N(C(C)C)C(C)C)c1)C(C)C | > 100 |  | > 100 | > 100 |  | > 100 |  | > 100 |  | > 100 |  | > 100 |  | 67.1 |  | > 100 |  | > 100
5 | C[N+]1=c2c3cccc4cccc(c(=O)n2CC1)c43 | > 100 |  | 29.2 | 42.3 |  | 43.3 |  | 28.7 |  | 28.7 |  | 33.5 |  | 93.1 |  | 9.59 |  | 38.8
6 | COc1cc(/C=C/c2ccc(C)cc2)cc(OC)c1OC | > 55.2 |  | > 100 | 18.1 |  | 4.69 |  | 15.3 |  | 11.4 |  | 21.9 |  | 43.7 |  | 16.6 |  | 18
7 | CC(C)C1CO[C@]2(C)CCC(=O)N12 (stereo partly specified) | > 100 |  | > 100 | > 100 |  | > 100 |  | > 100 |  | > 100 |  |  |  | > 100 |  | > 100 |  | > 100
8 | C=CC(=O)N1C/C(=C\c2ccc(Cl)c(Cl)c2)C(=O)/C(=C/c2ccc(Cl)c(Cl)c2)C1 | 1.17 |  | 0.309 | 0.642 |  | 0.545 |  | 0.702 |  | 2.73 |  | 1.02 |  | 0.0983 |  | 0.0648 |  | 2.57
